According to PubChem BioAssay (NCI):
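Compound exposure: 48 hours, 5 concentrations, 96-well plates. TGI is the concentration that stops growth completely.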

Tests used:
Experiment in all cases: inhibition of tumour cell growth, NCI panel, 48 h
MDA-MB-231 breast = tested on: MDA-MB-231 breast
MALME-3M melanoma = tested on: MALME-3M melanoma
OVCAR-3 ovarian = tested on: OVCAR-3 ovarian
HOP-92 NSCLC = tested on: HOP-92 NSCLC
CAKI-1 renal = tested on: CAKI-1 renal
EKVX NSCLC = tested on: EKVX NSCLC
NCI-H522 lung = tested on: NCI-H522 lung
UACC-257 melanoma = tested on: UACC-257 melanoma
SF-295 CNS = tested on: SF-295 CNS
MOLT-4 leukemia = tested on: MOLT-4 leukemia
SK-MEL-28 melanoma = tested on: SK-MEL-28 melanoma
RPMI-8226 leukemia = tested on: RPMI-8226 leukemia
HCC-2998 colon = tested on: HCC-2998 colon
UO-31 renal = tested on: UO-31 renal
SR leukemia = tested on: SR leukemia
SK-MEL-5 melanoma = tested on: SK-MEL-5 melanoma
PC-3 prostate = tested on: PC-3 prostate
DU-145 prostate = tested on: DU-145 prostate
786-0 renal = tested on: 786-0 renal
NCI-H460 lung = tested on: NCI-H460 lung
ACHN renal = tested on: ACHN renal
SN12C renal = tested on: SN12C renal
HT29 colon = tested on: HT29 colon
RXF 393 renal = tested on: RXF 393 renal
SK-MEL-2 melanoma = tested on: SK-MEL-2 melanoma
OVCAR-8 ovarian = tested on: OVCAR-8 ovarian
A498 renal = tested on: A498 renal
OVCAR-5 ovarian = tested on: OVCAR-5 ovarian
UACC-62 melanoma = tested on: UACC-62 melanoma
HOP-62 NSCLC = tested on: HOP-62 NSCLC
U251 CNS = tested on: U251 CNS
A549 NSCLC = tested on: A549 NSCLC
MCF7 breast = tested on: MCF7 breast
SF-268 CNS = tested on: SF-268 CNS
MDA-MB-435 = tested on: MDA-MB-435
SK-OV-3 ovarian = tested on: SK-OV-3 ovarian
NCI-H226 lung = tested on: NCI-H226 lung
TK-10 renal = tested on: TK-10 renal
BT-549 breast = tested on: BT-549 breast
NCI-H23 lung = tested on: NCI-H23 lung
OVCAR-4 ovarian = tested on: OVCAR-4 ovarian
NCI/ADR-RES ovarian = tested on: NCI/ADR-RES ovarian
M14 melanoma = tested on: M14 melanoma
K-562 leukemia = tested on: K-562 leukemia
MDA-N = tested on: MDA-N
SW-620 colon = tested on: SW-620 colon
HCT-15 colon = tested on: HCT-15 colon
SNB-19 CNS = tested on: SNB-19 CNS
COLO 205 colon = tested on: COLO 205 colon

COc1cc2c[n+](C)c3c4cc(OC)c(OC)cc4c(OCc4ccccc4)cc3c2cc1OC was tested, and the TGI (MDA-MB-231 breast) was 6.69 µM, the TGI (MALME-3M melanoma) was 3.31 µM and the TGI (OVCAR-3 ovarian) was 3.97 µM. For the same compound, the TGI (HOP-92 NSCLC) was 3.24 µM, the TGI (CAKI-1 renal) was > 90.7 µM and the TGI (EKVX NSCLC) was > 100 µM. For the same compound, the TGI (NCI-H522 lung) was 1.5 µM, the TGI (UACC-257 melanoma) was 3.38 µM and the TGI (SF-295 CNS) was 96.9 µM. The TGI (MOLT-4 leukemia) was > 80.1 µM, the TGI (SK-MEL-28 melanoma) was 2.55 µM and the TGI (RPMI-8226 leukemia) was 77.2 µM. The TGI (HCC-2998 colon) was 41.3 µM, the TGI (UO-31 renal) was > 100 µM and the TGI (SR leukemia) was > 100 µM. The TGI (SK-MEL-5 melanoma) was 2.69 µM, the TGI (PC-3 prostate) was 3.41 µM and the TGI (DU-145 prostate) was 9.81 µM. The TGI (786-0 renal) was 12.3 µM, the TGI (NCI-H460 lung) was > 100 µM and the TGI (ACHN renal) was > 100 µM. The TGI (SN12C renal) was > 100 µM, the TGI (HT29 colon) was 7.29 µM and the TGI (RXF 393 renal) was 6.19 µM. For the same compound, the TGI (SK-MEL-2 melanoma) was 3.37 µM, the TGI (OVCAR-8 ovarian) was 5.02 µM and the TGI (A498 renal) was > 86.7 µM. For the same compound, the TGI (OVCAR-5 ovarian) was > 100 µM, the TGI (UACC-62 melanoma) was 1.8 µM and the TGI (HOP-62 NSCLC) was 10.5 µM. For the same compound, the TGI (U251 CNS) was 1.08 µM, the TGI (A549 NSCLC) was > 100 µM and the TGI (MCF7 breast) was 5.05 µM. The TGI (SF-268 CNS) was 1.97 µM, the TGI (MDA-MB-435) was 2.34 µM and the TGI (SK-OV-3 ovarian) was > 100 µM. The TGI (NCI-H226 lung) was 3.94 µM, the TGI (TK-10 renal) was > 100 µM and the TGI (BT-549 breast) was 1.71 µM. For the same compound, the TGI (NCI-H23 lung) was 4.36 µM, the TGI (OVCAR-4 ovarian) was > 27.5 µM and the TGI (NCI/ADR-RES ovarian) was > 100 µM. The TGI (M14 melanoma) was 4.2 µM, the TGI (K-562 leukemia) was > 100 µM and the TGI (MDA-N) was 2.53 µM. For the same compound, the TGI (SW-620 colon) was > 100 µM, the TGI (HCT-15 colon) was > 100 µM and the TGI (SNB-19 CNS) was 1.92 µM. It also gave a TGI (COLO 205 colon) of 1.96 µM.
